From the supplement of paper PMC11208160

Experiment: recombinant barcode read abundance after kanamycin selection (control-corrected) (log10(CPM+1)); higher = more efficient recombination; sequences stand for … in AGTGCAGAGAAAATCGGCCAGTTTTCTCTGCCTGCAGTCCGCATGCCGT…AGATTTATGCAGCGGACTGCCTTTCTCCCAAAGTGATAAACCGGACAGTATCATGGACCGGTTTTCCCGGTAATCCGTATTTGCAAGGTTGGTTTCACT; site = the 11-nt target
Method in brief: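 For this pooled screen, each oligo contained a promoter, a target, a barcode and the J23119-driven first 104 bases of the bridge RNA. Gibson cloning placed it into a vector supplying the remaining 73 bp and a T7-inducible recombinase, and the pool was co-electroporated into E. coli with a donor plasmid. Recombination efficiency is derived from barcode counts per million at recombinant junctions after averaging and control correction, and is expressed on a log scale as log10(CPM+1), with selection on chloramphenicol/ampicillin/kanamycin plus 0.1 mM IPTG against a chloramphenicol/ampicillin LB agar control.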
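Note: IS621 recombinase and bridge RNA in Escherichia coli cells.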

Sequence | recombinant barcode read abundance (log10)
AGTTGCACTTGGGTTCTAACCTGTTGCCT (site AGTTTCACTAG) | 0.0516
AGTTTAACTTGGGTTCTAACCTGTTGCAC (site AGTTTAACTGT) | 0.0458
AGTTTAACTTGGGTTCTAACCTGTTGCAC (site GTCGGTCCTCG) | 0.258
ATAAAAGCTTGGGTTCTAACCTGTTGCCT (site ATAAAAGCTAG) | 1.5
ATAAAAGCTTGGGTTCTAACCTGTTGCCT (site ATAACAGCTAG) | 0.0538
ATAAAAGCTTGGGTTCTAACCTGTTGCCT (site ATAAGAGCTAG) | 0.172
ATAAAAGCTTGGGTTCTAACCTGTTGCCT (site ATAATAGCTAG) | 0.59
ATAAACCCTTGGGTTCTAACCTGTTGCAT (site AGAATCCCTAT) | 0.324
ATAAACCCTTGGGTTCTAACCTGTTGCAT (site ATAAACCCTAT) | 2.4
ATAACCTCTTGGGTTCTAACCTGTTGCCT (site ATAACCTCTAG) | 2
ATAACCTCTTGGGTTCTAACCTGTTGCCT (site GAGGTGCCTCT) | 0
ATAAGACCTTGGGTTCTAACCTGTTGCCT (site ATAAGACCTAG) | 2.24
ATAAGACCTTGGGTTCTAACCTGTTGCCT (site ATGAGAGCTAG) | 0.229
ATAAGGCCTTGGGTTCTAACCTGTTGCCT (site ATAAAGCCTAG) | 0.102
ATAAGGCCTTGGGTTCTAACCTGTTGCCT (site ATAAGGCCTAG) | 0.154
ATAGAATCTTGGGTTCTAACCTGTTGCTC (site ATAGAATCTGA) | 1.96
ATAGAATCTTGGGTTCTAACCTGTTGCTC (site TGCCTGCCTCT) | 0.204
ATAGACCCTTGGGTTCTAACCTGTTGCCT (site ATAGACCCTAG) | 2.36
ATAGACCCTTGGGTTCTAACCTGTTGCCT (site CTAGACCCTAG) | 0.918
ATAGACCCTTGGGTTCTAACCTGTTGCCT (site GTAGACCCTAG) | 0.599
ATAGACCCTTGGGTTCTAACCTGTTGCCT (site TTAGACCCTAG) | 1.49
ATAGAGTCTTGGGTTCTAACCTGTTGCCT (site ACAGATTCTAG) | 0.143

Sequence | recombinant barcode read abundance (log10)
ATAGAGTCTTGGGTTCTAACCTGTTGCCT (site ATAGAGTCTAG) | 2.64
ATAGGGTCTTGGGTTCTAACCTGTTGCCT (site AAAGGGTCTAG) | 1.04
ATAGGGTCTTGGGTTCTAACCTGTTGCCT (site ACAGGGTCTAG) | 1.85
ATAGGGTCTTGGGTTCTAACCTGTTGCCT (site AGAGGGTCTAG) | 0.211
ATAGGGTCTTGGGTTCTAACCTGTTGCCT (site ATAGGGTCTAG) | 2.5
ATAGGTCCTTGGGTTCTAACCTGTTGCCT (site ATAGGTCCTAG) | 1.58
ATAGGTCCTTGGGTTCTAACCTGTTGCCT (site ATCGGTCCTAG) | 0.202
ATAGGTCCTTGGGTTCTAACCTGTTGCCT (site ATGGGTCCTAG) | 0.189
ATAGGTCCTTGGGTTCTAACCTGTTGCCT (site ATTGGTCCTAG) | 0.309
ATATCAACTTGGGTTCTAACCTGTTGCCG (site ATATCAACTCG) | 0.625
ATATCAACTTGGGTTCTAACCTGTTGCCG (site TCTGTGTCTTA) | 0.0298
ATATCTTCTTGGGTTCTAACCTGTTGCCT (site ATATCTTCTAG) | 1.03
ATATCTTCTTGGGTTCTAACCTGTTGCCT (site ATTTCTTCTAG) | 0.578
ATATGATCTTGGGTTCTAACCTGTTGCCT (site ATATGATCTAG) | 1.43
ATATGATCTTGGGTTCTAACCTGTTGCCT (site ATATTATCTTG) | 0.145
ATATGTACTTGGGTTCTAACCTGTTGCCA (site ATATGTACTCG) | 0.22
ATATGTACTTGGGTTCTAACCTGTTGCCA (site ATATGTACTTG) | 0.733
ATATGTCCTTGGGTTCTAACCTGTTGCAA (site ATATGTCCTTT) | 0.715
ATATGTCCTTGGGTTCTAACCTGTTGCAA (site GGTGCATCTAA) | 0.0198
ATCAAAGCTTGGGTTCTAACCTGTTGCCT (site ATCAAAGCTAG) | 0.154
ATCAAAGCTTGGGTTCTAACCTGTTGCCT (site ATCACAGCTAG) | 0.156
ATCAAGCCTTGGGTTCTAACCTGTTGCAG (site ATCAAGCCTCT) | 1.83

Sequence | recombinant barcode read abundance (log10)
ATCAAGCCTTGGGTTCTAACCTGTTGCAG (site TATCCCTCTAG) | 0.0814
ATCAAGCCTTGGGTTCTAACCTGTTGCTT (site ATCAAGCCTAA) | 0.102
ATCAAGCCTTGGGTTCTAACCTGTTGCTT (site ATGAAGCCTAA) | 0.122
ATCATAGCTTGGGTTCTAACCTGTTGCGC (site ATCATAGCTGC) | 0.504
ATCATAGCTTGGGTTCTAACCTGTTGCGC (site CCATACCCTTA) | 0.0517
ATCATTCCTTGGGTTCTAACCTGTTGCCT (site AACATACCTAG) | 0.237
ATCATTCCTTGGGTTCTAACCTGTTGCCT (site ATCATTCCTAG) | 0.542
ATCCTTACTTGGGTTCTAACCTGTTGCCT (site AACCTTACTAG) | 0.247
ATCCTTACTTGGGTTCTAACCTGTTGCCT (site ACCCTTACTAG) | 0.136
ATCCTTACTTGGGTTCTAACCTGTTGCCT (site AGCCTTACTAG) | 0.156
ATCCTTACTTGGGTTCTAACCTGTTGCCT (site ATCCTTACTAG) | 1.16
ATCGCTTCTTGGGTTCTAACCTGTTGCCT (site AACGCTTCTAG) | 0.246
ATCGCTTCTTGGGTTCTAACCTGTTGCCT (site ACCGCTTCTAG) | 0.272
ATCGCTTCTTGGGTTCTAACCTGTTGCCT (site AGCGCTTCTAG) | 0.432
ATCGCTTCTTGGGTTCTAACCTGTTGCCT (site ATCGCTTCTAG) | 0.0338
ATCGGACCTTGGGTTCTAACCTGTTGCCT (site ATCGGAACTAG) | 0.0754
ATCGGACCTTGGGTTCTAACCTGTTGCCT (site ATCGGACCTAG) | 1.23
ATCGGACCTTGGGTTCTAACCTGTTGCCT (site ATCGGAGCTAG) | 0.206
ATCGGACCTTGGGTTCTAACCTGTTGCCT (site ATCGGATCTAG) | 0.107
ATCGGAGCTTGGGTTCTAACCTGTTGCCT (site ATCGGAACTAG) | 0.196
ATCGGAGCTTGGGTTCTAACCTGTTGCCT (site ATCGGACCTAG) | 0.0265
ATCGGAGCTTGGGTTCTAACCTGTTGCCT (site ATCGGAGCTAG) | 0.775
